The supplement of paper PMC10307832

Tests used:
Assay in all cases: relative viability (nuclei count vs DMSO), 5 days (fraction); higher = more cells survive
[1] = compound: CC1=C(C(=NN1)C)CC2=C(C3=C(S2)N(C(=O)N(C3=O)C)CC(C)C)C(=O)N4C[C@@H](CO4)O + COc1cc2c(Oc3ccc(NC(=O)C4(C(=O)Nc5ccc(F)cc5)CC4)cc3F)ccnc2cc1OCCCN1CCOCC1 [Foretinib] (partner 0.25 µM)
In short: (§1)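 The day after seeding in 1536-well plates, lung cancer cell lines were treated by pin tool with a single drug, or with a fixed anchor-drug dose together with five library-drug doses (not always all listed) in √10 steps. After 5 days, a combined fix-and-stain solution (final 0.05% Triton X-100, 1% formaldehyde, 1 ug/ml Hoechst) was added. Nuclei counted on 4× images gave relative viability as treated counts over vehicle counts, reported as the median of duplicate plates.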

[2] = compound: CC1=C(C(=NN1)C)CC2=C(C3=C(S2)N(C(=O)N(C3=O)C)CC(C)C)C(=O)N4C[C@@H](CO4)O + CS(=O)(=O)N1CCN(Cc2cc3nc(-c4cccc5[nH]ncc45)nc(N4CCOCC4)c3s2)CC1 [Pictilisib] (partner 1 µM)
In short: as §1

[3] = compound: Cc1ccccc1C(C(=O)NC1CCCCC1)N(C(=O)Cn1ccnc1C)c1cccc(F)c1 [IDH-C35] + Cc1cc(Nc2cc(N3CCN(C)CC3)nc(Sc3ccc(NC(=O)C4CC4)cc3)n2)n[nH]1 [Tozasertib] (partner 0.1 µM)
In short: as §1

[4] = compound: Cc1ccccc1C(C(=O)NC1CCCCC1)N(C(=O)Cn1ccnc1C)c1cccc(F)c1 [IDH-C35] + O=C(c1cc(Cc2n[nH]c(=O)c3ccccc23)ccc1F)N1CCN(C(=O)C2CC2)CC1 [Olaparib] (partner 8 µM)
In short: as §1

Cell Line | relative viability ([1]; first compound 0.0025 µM) | relative viability ([1]; first compound 0.007906 µM) | relative viability ([1]; first compound 0.025 µM) | relative viability ([1]; first compound 0.07906 µM) | relative viability ([1]; first compound 0.25 µM) | relative viability ([2]; first compound 0.0025 µM) | relative viability ([2]; first compound 0.007906 µM) | relative viability ([2]; first compound 0.025 µM) | relative viability ([2]; first compound 0.07906 µM) | relative viability ([2]; first compound 0.25 µM) | relative viability ([3]; first compound 0.08 µM) | relative viability ([3]; first compound 0.253 µM) | relative viability ([3]; first compound 0.8 µM) | relative viability ([3]; first compound 8 µM) | relative viability ([4]; first compound 0.08 µM) | relative viability ([4]; first compound 0.253 µM) | relative viability ([4]; first compound 0.8 µM) | relative viability ([4]; first compound 2.53 µM) | relative viability ([4]; first compound 8 µM) | relative viability ([3]; first compound 2.53 µM)
NCI-H596 | 1.08 | 1.12 | 0.691 | 0.702 | 0.99 | 0.387 | 0.369 | 0.387 | 0.431 | 0.593 | 1.01 | 0.866 | 0.937 | 0.788 | 0.591 | 0.653 | 0.773 | 0.751 | 0.785 | 
NCI-H23 | 1.05 | 0.992 | 0.965 | 1.07 | 1.16 | 0.528 | 0.489 | 0.523 | 0.494 | 0.651 | 0.325 | 0.399 | 0.414 | 0.406 | 0.306 | 0.329 | 0.33 | 0.321 | 0.381 | 0.313
LCLC-97TM1 | 0.97 | 1.01 | 0.935 | 0.775 | 0.934 | 0.188 | 0.268 | 0.22 | 0.182 | 0.199 | 0.397 | 0.189 | 0.184 | 0.231 | 0.322 | 0.291 | 0.341 |  | 0.47 | 0.196
EPLC-272H | 0.73 | 0.618 | 0.765 | 0.657 | 0.643 | 0.317 | 0.293 | 0.29 | 0.314 | 0.384 | 0.262 | 0.193 | 0.254 | 0.217 | 0.836 | 0.866 | 1.24 | 0.904 | 0.603 | 0.333
NCI-H1915 | 1.18 | 1.12 | 1.05 | 1.01 | 1.11 | 0.965 | 0.927 | 0.897 | 0.878 | 0.975 | 0.407 | 0.42 | 0.438 | 0.396 | 0.267 | 0.269 | 0.245 | 0.274 | 0.256 | 0.429
NCI-H2405 | 1.09 | 1.05 |  | 0.978 | 1.01 | 0.459 | 0.422 |  | 0.432 | 0.476 | 0.735 | 0.776 | 0.758 | 0.689 | 0.85 | 0.858 | 0.825 | 0.98 | 0.884 | 0.716
NCI-H322M | 1.07 | 0.969 | 1.04 | 0.977 | 0.98 | 0.519 | 0.504 | 0.562 | 0.58 | 0.5 | 0.46 | 0.494 | 0.466 | 0.517 | 0.616 | 0.796 | 0.794 | 0.789 | 0.845 | 0.467
NCI-H2170 | 0.989 | 1.09 | 0.984 | 0.972 | 1.08 | 0.228 | 0.293 | 0.298 | 0.341 | 0.297 | 0.781 | 0.724 | 0.678 | 0.693 | 0.616 | 0.654 | 0.587 | 0.571 | 0.593 | 0.728
NCI-H1395 | 1.11 | 1.04 | 0.804 | 0.812 | 0.824 | 0.63 | 0.598 | 0.525 | 0.634 | 0.735 | 0.723 | 0.831 | 0.735 | 0.774 | 0.436 | 0.449 | 0.473 | 0.463 | 0.464 | 0.728
NCI-H358 | 0.636 | 0.76 | 0.664 | 0.766 | 0.791 | 0.41 | 0.348 | 0.359 | 0.375 | 0.375 | 0.099 | 0.112 | 0.112 | 0.0934 | 0.57 | 0.491 | 0.549 | 0.575 | 0.554 | 0.0888
NCI-H838 | 1.06 | 1.04 | 0.983 | 0.974 | 0.99 | 0.506 | 0.507 | 0.607 | 0.511 | 0.552 | 0.249 | 0.276 | 0.292 | 0.234 | 0.797 | 0.787 | 0.779 | 0.785 | 0.745 | 0.281
CAL-12T | 1.08 | 1.3 | 1.05 | 1.25 | 1.17 | 0.502 | 0.57 |  | 0.588 | 0.518 | 0.307 | 0.306 | 0.303 | 0.301 | 0.761 | 0.73 | 0.629 | 0.747 | 0.701 | 0.379
